Literature values as cited in patent US6794359B2, “Vertebrate intestinal protein which absorbs cholesterol, its inhibitors and mehtod of identifying the same” (Aventis Pharma Deutschland GmbH, priority 2000, dated 2004).
Read-outs that look alike come from different tables or passages of the source.

What was measured:
[1] = test system: intestinal cholesterol absorption; settings: rabbits
[2] = test system: intestinal cholesterol absorption; settings: hamsters
[3] = test system: intestinal cholesterol absorption; settings: dogs
[4] = test system: intestinal cholesterol absorption; settings: rhesus monkeys
[5] = test system: intestinal cholesterol absorption; settings: humans

Structure (SMILES): COc1ccc([C@@H]2[C@@H](CCCc3ccccc3)C(=O)N2c2ccc(OC)cc2)cc1 [SCH 48461]
- inhibition of intestinal cholesterol absorption [1]: very efficiently inhibits
- inhibition of intestinal cholesterol absorption [2]: very efficiently inhibits
- inhibition of intestinal cholesterol absorption [3]: very efficiently inhibits
- inhibition of intestinal cholesterol absorption [4]: very efficiently inhibits
- inhibition of intestinal cholesterol absorption [5]: very efficiently inhibits

Structure (SMILES): O=C1[C@H](CC[C@H](O)c2ccc(F)cc2)[C@@H](c2ccc(O)cc2)N1c1ccc(F)cc1 [SCH 58235]
- increase of effect on direct comparison ([2]; direct comparison with SCH 48461): 50 fold

Structure (SMILES): CC[C@H](CC[C@@H](C)[C@H]1CC[C@H]2[C@@H]3CC=C4C[C@@H](O)CC[C@]4(C)[C@H]3CC[C@]12C)C(C)C [β-sitosterol]
- inhibition of cholesterol absorption ([5]; background statement): an inhibition of cholesterol absorption
